Where “and” joins values, the source holds several entries; their conditions need not be identical. Equal values may be shown once. Read-outs that look alike come from different tables or passages of the source.
What was measured:
CB1 (rCB1) [1] = target: T1, CB1 (rCB1) (Rattus norvegicus, UniProt P20272); assay: Radioligand competition binding, [3H]-CP-55,940, rat brain membranes; conditions: for pKi [95% CI]: rCB1
hCB1 = hCB1 (Homo sapiens, UniProt P21554); assay: bioSensAll ebBRET signaling profiling, hCB1; type: cell-based; set-up: host or cells: HEK293SL cells, transient PEI transfection; conditions: for Gi1 hCB1 response: Gi1 biosensor; for Gi1 hCB1 / GoB hCB1: single replicate values, FigS6a; for EC50: read-out: EC50 [95% CI]; for Emax: normalized to CP-55,940
CB1 (rCB1) [2] = target: T1, CB1 (rCB1); assay: Single-point radioligand displacement screen; type: binding; conditions: 10 µM, 1 µM or 300 nM by cell colour (not visible)

Sequence of hCB1 (P21554 whole entry): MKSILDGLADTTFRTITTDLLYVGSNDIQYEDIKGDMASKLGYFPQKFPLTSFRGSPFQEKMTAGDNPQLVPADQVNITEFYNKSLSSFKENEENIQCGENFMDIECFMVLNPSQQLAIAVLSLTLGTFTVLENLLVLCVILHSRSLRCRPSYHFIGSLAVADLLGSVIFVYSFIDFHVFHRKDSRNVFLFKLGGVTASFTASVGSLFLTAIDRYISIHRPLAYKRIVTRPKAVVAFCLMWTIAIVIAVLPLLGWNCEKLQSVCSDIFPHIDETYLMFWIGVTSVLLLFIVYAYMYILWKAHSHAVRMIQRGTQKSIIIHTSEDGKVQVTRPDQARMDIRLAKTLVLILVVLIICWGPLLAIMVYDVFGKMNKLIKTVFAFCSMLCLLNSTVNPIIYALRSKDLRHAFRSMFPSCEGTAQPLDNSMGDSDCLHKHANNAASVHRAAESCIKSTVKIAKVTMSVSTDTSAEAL
T1 sequence (P20272 whole entry): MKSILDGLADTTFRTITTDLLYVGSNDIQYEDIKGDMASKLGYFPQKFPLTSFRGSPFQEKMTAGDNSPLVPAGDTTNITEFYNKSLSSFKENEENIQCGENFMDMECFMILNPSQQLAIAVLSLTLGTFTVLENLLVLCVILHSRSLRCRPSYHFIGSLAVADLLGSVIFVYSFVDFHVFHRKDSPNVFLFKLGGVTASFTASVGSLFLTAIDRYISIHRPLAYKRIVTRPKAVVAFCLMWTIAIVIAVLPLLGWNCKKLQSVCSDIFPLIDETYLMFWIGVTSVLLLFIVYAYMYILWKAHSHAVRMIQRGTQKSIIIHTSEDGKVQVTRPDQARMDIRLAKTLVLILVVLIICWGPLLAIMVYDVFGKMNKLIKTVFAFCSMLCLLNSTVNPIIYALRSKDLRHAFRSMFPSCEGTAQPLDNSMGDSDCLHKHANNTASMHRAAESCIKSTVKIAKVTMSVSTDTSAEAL

`CC(=O)C(c1cccs1)N(C)C(=O)c1cc(C)n(-c2cccc(C(F)(F)F)c2)n1` (stereo not drawn) [‘6829] was tested, and the “pKi [95% CI]” value (CB1 (rCB1) [1]) was 6.0 [5.8 – 6.2], the Ki (CB1 (rCB1) [1]; read-out: Ki [95% CI], rCB1, [3H]-CP-55,940) was 1050 nM and the “Gi1 hCB1 response” value (hCB1; Log [Compound] (M) -4.22186) was 50.5929. The “Gi1 hCB1 response” value (hCB1; Log [Compound] (M) -4.63927) was 80.4274, the “Gi1 hCB1 response” value (hCB1; Log [Compound] (M) -5.05788) was 60.8884 and the “Gi1 hCB1 response” value (hCB1; Log [Compound] (M) -5.47381) was 50.1453. The “Gi1 hCB1 response” value (hCB1; Log [Compound] (M) -5.89285) was 25.0333, the “Gi1 hCB1 response” value (hCB1; Log [Compound] (M) -6.31878) was 14.2679 and the “Gi1 hCB1 response” value (hCB1; Log [Compound] (M) -6.72585) was 9.501. The “Gi1 hCB1 response” value (hCB1; Log [Compound] (M) -7.14267) was -0.2577, the “Gi1 hCB1 response” value (hCB1; Log [Compound] (M) -7.55284) was -0.3025 and the “Gi1 hCB1 response” value (hCB1; Log [Compound] (M) -8) was -3.011. For the same compound, the “Gi1 hCB1 response” value (hCB1; Log [Compound] (M) -8.22186) was 2.07, the “Gi1 hCB1 response” value (hCB1; Log [Compound] (M) -8.39794) was -6.077 and the “Gi1 hCB1 response” value (hCB1; Log [Compound] (M) -8.68787) was 2.45. For the same compound, the “Gi1 hCB1 response” value (hCB1; Log [Compound] (M) -9.15521) was 5.629, the “Gi1 hCB1 response” value (hCB1; Log [Compound] (M) -9.61989) was -3.749 and the “Gi1 hCB1 response” value (hCB1; Log [Compound] (M) -10.0969) was -4.958. The “Gi1 hCB1 response” value (hCB1; Log [Compound] (M) -10.5529) was -8.091, the “Gi1 hCB1 response” value (hCB1; Log [Compound] (M) -11.0177) was -9.456 and the “Gi1 hCB1 response” value (hCB1; Log [Compound] (M) -11.4949) was -2.585. For the same compound, the “Gi1 hCB1 response” value (hCB1; Log [Compound] (M) -11.9208) was -4.1073, the “Gi1 hCB1 response” value (hCB1; Log [Compound] (M) -12.3979) was -11.8513 and the “Gi1 hCB1 response” value (hCB1; Log [Compound] (M) -12.8861) was -4.7116. For the same compound, the “Gi1 hCB1 response” value (hCB1; Log [Compound] (M) -13, individual replicate values) was -0.3696 and -4.085, the “Gi1 hCB1” value (hCB1; Log [Compound] (M) -4.22186) was 59.6278 and the “GoB hCB1” value (hCB1; Log [Compound] (M) -4.22186) was 46.0809. For the same compound, the “Gi1 hCB1” value (hCB1; Log [Compound] (M) -4.63927) was 49.4067, the “GoB hCB1” value (hCB1; Log [Compound] (M) -4.63927) was 48.6345 and the “Gi1 hCB1” value (hCB1; Log [Compound] (M) -5.05788) was 40.28. For the same compound, the “GoB hCB1” value (hCB1; Log [Compound] (M) -5.05788) was 42.8439, the “Gi1 hCB1” value (hCB1; Log [Compound] (M) -5.47381) was 35.5317 and the “GoB hCB1” value (hCB1; Log [Compound] (M) -5.47381) was 37.2331. For the same compound, the “Gi1 hCB1” value (hCB1; Log [Compound] (M) -5.89285) was 23.7381, the “GoB hCB1” value (hCB1; Log [Compound] (M) -5.89285) was 25.7777 and the “Gi1 hCB1” value (hCB1; Log [Compound] (M) -6.31878) was 13.3781. For the same compound, the “GoB hCB1” value (hCB1; Log [Compound] (M) -6.31878) was 16.7141, the “Gi1 hCB1” value (hCB1; Log [Compound] (M) -6.72585) was 9.694 and the “GoB hCB1” value (hCB1; Log [Compound] (M) -6.72585) was 6.7333. For the same compound, the “Gi1 hCB1” value (hCB1; Log [Compound] (M) -7.14267) was 3.188, the “GoB hCB1” value (hCB1; Log [Compound] (M) -7.14267) was 2.399 and the “Gi1 hCB1” value (hCB1; Log [Compound] (M) -7.55284) was 5.377. The “GoB hCB1” value (hCB1; Log [Compound] (M) -7.55284) was 1.374, the “Gi1 hCB1” value (hCB1; Log [Compound] (M) -8) was 4.359 and the “GoB hCB1” value (hCB1; Log [Compound] (M) -8) was 2.831. For the same compound, the “Gi1 hCB1” value (hCB1; Log [Compound] (M) -8.22186) was 1.1836, the “GoB hCB1” value (hCB1; Log [Compound] (M) -8.22186) was -4.488 and the “Gi1 hCB1” value (hCB1; Log [Compound] (M) -8.39794) was 5.593. The “GoB hCB1” value (hCB1; Log [Compound] (M) -8.39794) was 1.554, the “Gi1 hCB1” value (hCB1; Log [Compound] (M) -8.68787) was 1.615 and the “GoB hCB1” value (hCB1; Log [Compound] (M) -8.68787) was -3.931. The “Gi1 hCB1” value (hCB1; Log [Compound] (M) -9.15521) was 2.463, the “GoB hCB1” value (hCB1; Log [Compound] (M) -9.15521) was -1.036 and the “Gi1 hCB1” value (hCB1; Log [Compound] (M) -9.61989) was 0.7057. For the same compound, the “GoB hCB1” value (hCB1; Log [Compound] (M) -9.61989) was -1.161, the “Gi1 hCB1” value (hCB1; Log [Compound] (M) -10.0969) was 1.353 and the “GoB hCB1” value (hCB1; Log [Compound] (M) -10.0969) was -3.463. For the same compound, the “Gi1 hCB1” value (hCB1; Log [Compound] (M) -10.5529) was 1.137, the “GoB hCB1” value (hCB1; Log [Compound] (M) -10.5529) was 1.105 and the “Gi1 hCB1” value (hCB1; Log [Compound] (M) -11.0177) was 3.142. For the same compound, the “GoB hCB1” value (hCB1; Log [Compound] (M) -11.0177) was -0.532, the “Gi1 hCB1” value (hCB1; Log [Compound] (M) -11.4949) was 2.879 and the “GoB hCB1” value (hCB1; Log [Compound] (M) -11.4949) was 1.392. For the same compound, the “Gi1 hCB1” value (hCB1; Log [Compound] (M) -11.9208) was 3.126, the “GoB hCB1” value (hCB1; Log [Compound] (M) -11.9208) was 1.392 and the “Gi1 hCB1” value (hCB1; Log [Compound] (M) -12.3979) was 4.159. The “GoB hCB1” value (hCB1; Log [Compound] (M) -12.3979) was 2.561, the “Gi1 hCB1” value (hCB1; Log [Compound] (M) -12.8861) was 3.496 and the “GoB hCB1” value (hCB1; Log [Compound] (M) -12.8861) was 2.705. The “Gi1 hCB1” value (hCB1; Log [Compound] (M) -13) was 3.327 and 1.677, the “GoB hCB1” value (hCB1; Log [Compound] (M) -13) was -2.744 and -3.607 and the “pEC50 [95% CI]” value (hCB1; hCB1 Gi1) was 5.4 [5.0 – 5.6]. The “pEC50 [95% CI]” value (hCB1; hCB1 GoB) was 6.0 [5.8 – 6.2], the “pEC50 [95% CI]” value (hCB1; hCB1 Gz) was 5.9 [6.0 – 6.2] and the EC50 (hCB1; hCB1 Gi1) was 4060 nM. It also gave an EC50 (hCB1; hCB1 Gz) of 1350 nM, an Emax (hCB1; read-out: Emax [95% CI], hCB1 Gi1) of 68% and an Emax (hCB1; read-out: Emax [95% CI], hCB1 GoB) of 49%. For the same compound, the Emax (hCB1; read-out: Emax [95% CI], hCB1 Gz) was 70%.
`COC(=O)C(NC(=O)c1cc(C)n(-c2cccc(C#N)c2)n1)c1ccsc1` (stereo not drawn) [‘31604] was tested, and the “% 1H-CP-55,940 displacement (mean) from single point screen” value (CB1 (rCB1) [2]) was 41.46% and the “pKi [95% CI]” value (CB1 (rCB1) [1]) was 6.1 [6.0 – 6.2].

Reference: PMC11882969 (Nature Communications, 2025)
